Measurements from US8673894B2 (Hoffmann-La Roche Inc., priority 2010, dated 2014).
Where a name gives a salt, the structure may show the parent alone.

Assays:
[1] = target: T1, endogenous cellular BACE2 (Rattus norvegicus, UniProt Q6IE75); experiment: Assay for BACE inhibition by measuring cellular TMEM27 cleavage; format: cell-based; conditions: INS-TMEM27 (INS1e-derived) cells, shed human TMEM27 in supernatant by ELISA
T1 construct: endogenous cellular BACE2 in the Ins1e rat cell line; endogenous in cells; host or cells: INS-TMEM27 (INS1e-derived rat insulinoma cell line with doxycycline-inducible full-length human TMEM27)
T1 sequence (Q6IE75 63-514): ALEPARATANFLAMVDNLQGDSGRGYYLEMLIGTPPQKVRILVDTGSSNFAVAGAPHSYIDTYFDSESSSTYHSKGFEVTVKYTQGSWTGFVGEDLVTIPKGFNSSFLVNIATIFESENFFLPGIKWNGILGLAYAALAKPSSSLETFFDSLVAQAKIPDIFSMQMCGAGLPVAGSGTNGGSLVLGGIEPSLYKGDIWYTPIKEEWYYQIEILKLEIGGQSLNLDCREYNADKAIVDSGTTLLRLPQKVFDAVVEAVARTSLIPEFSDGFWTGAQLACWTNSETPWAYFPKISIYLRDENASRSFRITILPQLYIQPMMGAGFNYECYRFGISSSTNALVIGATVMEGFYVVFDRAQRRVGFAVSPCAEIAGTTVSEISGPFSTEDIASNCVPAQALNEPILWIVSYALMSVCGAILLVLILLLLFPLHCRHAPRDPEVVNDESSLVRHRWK
Description: Assay for BACE Inhibition by Measuring Cellular TMEM27 Cleavage:
The assay uses the principle of inhibition of human TMEM27 cleavage by endogenous cellular BACE2 in the Ins1e rat cell line and shedding from the cell surface into the culture medium, followed by detection in an ELISA assay. Inhibition of BACE2 prevents the cleavage and shedding in a dose-dependent manner.
The stable cell line “INS-TMEM27” represents an INS1e-derived cell line with inducible expression (using the TetOn system) of full-length hTMEM27 in a doxycycline-dependent manner. The cells are cultured throughout the experiment in RPMI1640+ Glutamax (Invitrogen) Penicillin/Streptomycin, 10% Fetal bovine serum, […], […], 100 micrograms/ml G418 and 100 microgram/ml hygromycin and are grown inadherent culture at 37° C. in a standard CO2 cell culture incubator.
INS-TMEM27 cells are seeded in 96-well plates. After 2 days in culture, BACE2 inhibitor is added in a range of concentrations as required by the assay and after a further two hours, doxycycline is added to a final concentration of 500 ng/ml. The cells are incubated for a further 46 hours and the supernatant harvested for detection of shed TMEM27.
An ELISA assay (using a pair of mouse anti-human-TMEM27 antibodies, raised against the extracellular domain of TMEM27) is used for detection of TMEM27 in the culture medium. An EC50 for BACE2 inhibition is calculated using the ELISA readout for each inhibitor concentration with standard curve-fitting software such as XLFit for the Excel spreadsheet program.

Aβ40 = experiment: Cellular Aβ-lowering assay; format: cell-based; conditions: HEK293 cells stably expressing human APP695, Aβ40 in supernatant by ELISA after 18-20 hrs; read-out: Cellular assay Abeta40 IC50
Experimental: Cellular Aβ-Lowering Assay:
Human HEK293 cells which are stably transfected with a vector expressing a cDNA of the human APP wt gene (APP695) were used to assess the potency of the compounds in a cellular assay. The cells were seeded in 96-well microtiter plates in cell culture medium (Iscove, plus 10% (v/v) fetal bovine serum, glutamine, penicillin/streptomycin) to about 80% confluence and the compounds were added at a 10× concentration in 1/10 volume of medium without FCS containing 8% DMSO (final concentration of DMSO was kept at 0.8% v/v). After 18-20 hrs incubation at 37° C. and 5% CO2 in a humidified incubator the culture supernatant was harvested for the determination of Aβ40 concentrations. 96well ELISA plates (e.g., Nunc MaxiSorb) were coated with monoclonal antibody which specifically recognize the C-terminal end of Aβ40 (Brockhaus et al., NeuroReport 9, 1481-1486; 1998). After blocking of non-specific binding sites with e.g. 1% BSA and washing, the culture supernatants were added in suitable dilutions together with a horseradish peroxidase-coupled Aβ detection antibody (e.g., antibody 4G8, Senetek, Maryland Heights, Mo.) and incubated for 5 to 7 hrs. Subsequently the wells of the microtiter plate were washed extensively with Tris-buffered saline containing 0.05% Tween 20 and the assay was developed with tetramethylbenzidine/H2O2 in citric acid buffer. After stopping the reaction with one volume 1 N H2SO4 the reaction was measured in an ELISA reader at 450 nm wavelength. The concentrations of Aβ in the culture supernatants were calculated from a standard curve obtained with known amounts of pure Aβ peptide.

Row | Structure (SMILES) | IC50 [1] [nM] | IC50 (Aβ40) [nM]
1 | CC1(C)OCC[C@@](C)(c2cc(NC(=O)c3ccc(Cl)cn3)ccc2F)N=C1N [Example 47, 5-Chloro-pyridine-2-carboxylic acid [3-((S)-3-amino-2,2,5-trimethyl-2,5,6,7-tetrahydro-[1,4]oxazepin-5-yl)-4-fluoro-phenyl]-amide] | 46 | 58
2 | C[C@]1(c2cc(NC(=O)c3ccc(OC(F)F)cn3)ccc2F)N=C(N)COCC1(F)F [Example 48, (R)-N-(3-(3-amino-6,6-difluoro-5-methyl-2,5,6,7-tetrahydro-1,4-oxazepin-5-yl)-4-fluorophenyl)-5-(difluoromethoxy)picolinamide formate] | 88 | 1
3 | C[C@]1(c2cc(NC(=O)c3ccc(OCC(F)(F)F)cn3)ccc2F)N=C(N)COCC1(F)F [Example 49, (R)-N-(3-(3-amino-6,6-difluoro-5-methyl-2,5,6,7-tetrahydro-1,4-oxazepin-5-yl)-4-fluorophenyl)-5-(2,2,2-trifluoroethoxy)picolinamide formate] | 1110 | 22
4 | CC1(C)OCC[C@@](C)(c2cc(NC(=O)c3ccc(F)cn3)ccc2F)N=C1N [Example 50, 5-Fluoro-pyridine-2-carboxylic acid [3-((S)-3-amino-2,2,5-trimethyl-2,5,6,7-tetrahydro-[1,4]oxazepin-5-yl)-4-fluoro-phenyl]-amide] | 71 | 160
5 | C[C@@]1(c2cc(NC(=O)c3ncc(C(F)(F)F)cc3Cl)ccc2F)COCCC(N)=N1 [Example 52, 3-Chloro-5-trifluoromethyl-pyridine-2-carboxylic acid [3-((R)-5-amino-3-methyl-2,3,6,7-tetrahydro-[1,4]oxazepin-3-yl)-4-fluoro-phenyl]-amide] | 120 | 49
6 | C[C@]1(c2cc(NC(=O)c3ccc(OCC(F)(F)C(F)F)cn3)ccc2F)N=C(N)COCC1(F)F [Example 54, (R)-N-(3-(3-amino-6,6-difluoro-5-methyl-2,5,6,7-tetrahydro-1,4-oxazepin-5-yl)-4-fluorophenyl)-5-(2,2,3,3-tetrafluoropropoxy)picolinamide formate] | 570 | 29
7 | COC(C)C(=O)Nc1ccc(F)c([C@@]2(C)N=C(N)COCC2(F)F)c1 (stereo partly drawn) [Example 55, N-(3-((R)-3-amino-6,6-difluoro-5-methyl-2,5,6,7-tetrahydro-1,4-oxazepin-5-yl)-4-fluorophenyl)-2-methoxypropanamide formate] | 190 | 140
8 | CCOCc1ccc(C(=O)Nc2ccc(F)c([C@@]3(C)N=C(N)COCC3(F)F)c2)nc1 [Example 57, (R)-N-(3-(3-amino-6,6-difluoro-5-methyl-2,5,6,7-tetrahydro-1,4-oxazepin-5-yl)-4-fluorophenyl)-5-(ethoxymethyl)picolinamide formate] | 280 | 14
9 | CCOC(=O)c1ccc(C(=O)Nc2ccc(F)c([C@@]3(C)N=C(N)COCC3(F)F)c2)nc1 [Example 58, (R)-ethyl 6-(3-(3-amino-6,6-difluoro-5-methyl-2,5,6,7-tetrahydro-1,4-oxazepin-5-yl)-4-fluorophenylcarbamoyl)nicotinate formate formate] | 139 | 120
10 | C[C@]1(c2cc(NC(=O)c3ncccc3OCC(F)(F)F)ccc2F)N=C(N)COCC1(F)F [Example 59, (R)-N-(3-(3-amino-6,6-difluoro-5-methyl-2,5,6,7-tetrahydro-1,4-oxazepin-5-yl)-4-fluorophenyl)-3-(2,2,2-trifluoroethoxy)picolinamide] | 170 | 160
11 | C[C@]1(c2cc(NC(=O)c3ccc(OCC(F)F)cn3)ccc2F)N=C(N)COCC1(F)F [Example 60, (R)-N-(3-(3-amino-6,6-difluoro-5-methyl-2,5,6,7-tetrahydro-1,4-oxazepin-5-yl)-4-fluorophenyl)-5-(2,2-difluoroethoxy)picolinamide formate] | 4160 | 26

Stronger by IC50 [1], values ahead:

Row | IC50 [1] [nM] | IC50 (Aβ40) [nM] | Structure (SMILES)
12 | 41 | 10 | C[C@@]1(c2cc(NC(=O)c3ccc(C#N)cn3)ccc2F)COCCC(N)=N1 [Example 53, 5-Cyano-pyridine-2-carboxylic acid [3-((R)-5-amino-3-methyl-2,3,6,7-tetrahydro-[1,4]oxazepin-3-yl)-4-fluoro-phenyl]-amide]
13 | 15.6 | 1.5 | C[C@]1(c2cc(NC(=O)c3ncc(C#N)cc3Cl)ccc2F)N=C(N)COCC1(F)F [Example 56, (R)-N-(3-(3-amino-6,6-difluoro-5-methyl-2,5,6,7-tetrahydro-1,4-oxazepin-5-yl)-4-fluorophenyl)-3-chloro-5-cyanopicolinamide formate]
14 | 6.5 | 1.7 | C[C@]1(c2cc(NC(=O)c3ncc(Cl)cn3)ccc2F)N=C(N)COCC1(F)F [Example 46, 5-Chloro-pyrimidine-2-carboxylic acid [3-((R)-3-amino-6,6-difluoro-5-methyl-2,5,6,7-tetrahydro-[1,4]oxazepin-5-yl)-4-fluoro-phenyl]-amide]
15 | 4.7 | 23 | Cn1ccc(C(=O)Nc2ccc(F)c([C@@]3(C)N=C(N)COCC3(F)F)c2)n1 [Example 43, (R)-N-(3-(3-amino-6,6-difluoro-5-methyl-2,5,6,7-tetrahydro-1,4-oxazepin-5-yl)-4-fluorophenyl)-1-methyl-1H-pyrazole-3-carboxamide formate]
16 | 3 | 7.2 | Cn1cc(Cl)c(C(=O)Nc2ccc(F)c([C@@]3(C)N=C(N)COCC3(F)F)c2)n1 [Example 41, (R)-N-(3-(3-amino-6,6-difluoro-5-methyl-2,5,6,7-tetrahydro-1,4-oxazepin-5-yl)-4-fluorophenyl)-4-chloro-1-methyl-1H-pyrazole-3-carboxamide formate]
17 | 2.4 | 7.4 | Cc1nc(C(=O)Nc2ccc(F)c([C@@]3(C)N=C(N)COCC3(F)F)c2)co1 [Example 42, (R)-N-(3-(3-amino-6,6-difluoro-5-methyl-2,5,6,7-tetrahydro-1,4-oxazepin-5-yl)-4-fluorophenyl)-2-methyloxazole-4-carboxamide formate]
18 | 1.2 | 2.4 | C[C@]1(c2cc(NC(=O)c3ccn(C(F)F)n3)ccc2F)N=C(N)COCC1(F)F [Example 44, (R)-N-(3-(3-amino-6,6-difluoro-5-methyl-2,5,6,7-tetrahydro-1,4-oxazepin-5-yl)-4-fluorophenyl)-1-(difluoromethyl)-1H-pyrazole-3-carboxamide formate]
19 | 1 | 0.2 | C[C@]1(c2cc(NC(=O)c3ccc(Cl)cn3)ccc2F)N=C(N)COC[C@@H]1F [Example 61, N-(3-((5R,6R)-3-amino-6-fluoro-5-methyl-2,5,6,7-tetrahydro-1,4-oxazepin-5-yl)-4-fluorophenyl)-5-chloropicolinamide]
20 | 1 | 1.8 | C[C@]1(c2cc(NC(=O)c3ccc(F)cn3)ccc2F)N=C(N)COC[C@@H]1F [Example 62, N-(3-((5R,6R)-3-amino-6-fluoro-5-methyl-2,5,6,7-tetrahydro-1,4-oxazepin-5-yl)-4-fluorophenyl)-5-fluoropicolinamide]
